Laboratory results reported in US20060008466A1, “Methods for treating and preventing microbial infections” (University of Saskatchewan, priority 2004, published 2006).
Bridge positions count the residues as written; N and C are the ends. Ends that are not written are not given here.

Columns and labels:
B. pertussis [1] = assay: In vitro bactericidal activity against B. pertussis in SS medium, viable counts (CFU) on BG agar; type: cell-based, B. pertussis strain Tohama I
Procedure: The B. pertussis strain used in these experiments was Tohama I. Bacterial suspensions were stored at −70° C. in casamino acid plus 10% glycerol. Organisms were initially grown on the surface of Bordet-Gengou (BG) agar containing 15% (vol/vol) defibrinated sheep blood and 40 μg/ml of Cephalexin at 37° C. for 48 hrs. The bacterial cells were harvested and washed in phosphate-buffered saline (PBS, pH 7.2) by centrifugation at 2500 g for 10 min. The pellets were resuspended in saline and adjusted to a specified bacterial titer by determining the optical density at 600 nm using a spectrophotometer; The corresponding viable counts of these suspensions were measured by plating out serial dilutions of the bacterial suspension onto BG-agar and incubating at 37° C. for 4-5 days.
To examine the bactericidal effect of defensin against B. pertussis, 10 μl of bacterial suspension (OD600 nm of 0.2) was added to 200 μl of Stainer and Scholte (SS) broth medium with or without chemically synthesized defensin at different concentrations in a 96 well plate and incubated at 37° C. for up to 30 hours. At the end of each incubation period (6 hrs, 18 hrs, 24 hrs, 30 hrs), the culture medium was immediately removed for quantification of viable bacteria. The culture medium with or without defensin was plated onto BG agar plates and incubated at 37° C. for up to 4 days after which time the number of colonies were counted. The number of surviving bacteria was estimated by colony-forming units (CFU). The results were confirmed by three independent experiments compared with results from control bacterial culture (no peptide).
20, 40 and 80 μg of pBD-1 was added to bacterial culture and incubated at 37° C. Aliquots were removed at 6, 18 and 30 hr post incubation and incubated for 4 days on BG plates at 37° C.
(§1) Bactericidal activity of bronchoalveolar lavage (BAL) fluid obtained from non-infected piglets was analyzed against B. pertussis in vitro. Non-infected piglets, either 4-5 weeks old or newborn piglets (6 hours old, colostrum-deprived or colostrum-fed), were euthanized and BALs were collected in Stainer-Scholte (SS) medium. The BAL fluid was obtained by filling the lungs with 10 ml of SS medium and withdrawing as much fluid as possible (this procedure was performed once). Alveolar macrophages and other cells were removed by centrifugation at 500 g for 10 minutes. BALs (290 μl) were co-cultured in microtiter plates with 10 μl bacterial suspension containing 5-7×10^6 CFU of B. pertussis at 37° C. Supernatants were plated onto BG agar plates at different time points to evaluate the number of viable bacteria. The sensitivity of B. pertussis to synthetically derived pBD-1 and human beta-defensin 2 (hBD-2) was assayed by co-culturing appropriate concentrations of pBD-1 or hBD-2 in SS-medium (280 μl) with 5-7×10^6 CFU (10 μl) bacteria. Plates were incubated at 37° C. for 2, 6, 18 and 24 hours. The same procedures were followed to investigate the inhibitory effects of BAL, pBD-1 and hBD-2 against B. bronchiseptica in vitro.

B. bronchiseptica [2] = assay: In vitro bactericidal activity against B. bronchiseptica, plate counts; type: cell-based
Procedure: (§2) E. coli, Actinobacillus pleuropneumoniae and B. bronchiseptica were grown on agar plates using routine procedures. The bacteria were washed off the plates, washed in saline and subsequently resuspended in media. They were co-incubated with pBD-1 in varying doses and incubated for various time periods (6-48 hours). The bacteria were quantified by plating the suspension onto agar plates.
as §1

[3] = test system: Actinobacillus pleuropneumoniae; assay: In vitro inhibitory activity against Actinobacillus pleuropneumoniae; type: cell-based; details: FIG. 6A
Procedure: as §2
(§3) The inhibitory activity of pBD-1 on the Gram-negative bacteria Actinobacillus pleuropneumoniae, Bordetella bronchiseptica, Streptococcus suis and E. coli was also examined. FIGS. 6A-6B show the results on A. pleuropneumoniae, S. suis, B. bronchiseptica and B. pertussis. The results for E. coli are not shown.

Streptococcus suis = assay: In vitro inhibitory activity against Streptococcus suis; type: cell-based; details: FIG. 6B
Text: as §3

E. coli = assay: In vitro inhibitory activity against E. coli; type: cell-based; details: results not shown
Procedure: as §2, §3

B. pertussis [4] = assay: In vivo antimicrobial activity: pBD-1 delivered into lungs of newborn piglets, challenge with B. pertussis
Procedure: Pregnant Landrace sows were purchased from the Saskatoon Prairie Swine Centre, University of Saskatchewan. Sows were induced to farrow by intramuscular (i.m.) injection of prostaglandin (Planate) (Schering, Quebec, Canada) at day 113 of gestation. Piglets were born at day 114-115 of gestation. Nursing piglets were kept within the same room, but in separated pens and monitored very closely. The piglets were challenged at 3-5 days of age. All experiments were conducted in accordance with the ethical guidelines of the University of Saskatchewan and the Canadian Council for Animal Care (CCAC).
Newborn piglets were anaesthetized with isoflurane and intubated using a laryngoscope. Infection was initiated by delivering 5×10^9 CFU of B. pertussis strain Tohama I intrapulmonarily (craniodorsal of the bifurcation) through a MICRO-RENATHANE tube (0.95) (Braintree Scientific Inc., Braintree, Mass., USA), which was inserted through an endotracheal tube (3 mm) (Jorgensen Laboratories Inc. Loveland, Colo., USA). The bottom-end of the MICRO-RENATHANE tube was sealed and minute holes were made for the equal distribution of bacteria. Piglets were monitored twice daily for clinical symptoms including fever and respiratory symptoms such as nasal discharge, non paroxysmal cough and breathing difficulties. Piglets were euthanized by i.p. injection of 5 ml of Euthanyl (Sodium barbiturate; Bimeda-MTC, Ont, Canada) at different time points over a 10 day period post challenge. The thoracic and the abdominal cavities and the lungs were examined for any lesions and abnormalities such as pleuritis or local collections of blood and fluids in the thorax were noted.
The antimicrobial activity of pBD-1 was tested in vivo by delivery of pBD-1 into the lungs of newborn piglets prior to challenge with B. pertussis. Pregnant sows, Landrace, were purchased from Saskatoon Prairie Swine Centre, University of Saskatchewan. Sows were farrowed out by i.m. injection of prostaglandin (Planate). Three to four day old colostrum-fed piglets were anaesthetized with isoflurane. 500 μg of pBD-1 dissolved in 1.5 ml PBS was delivered to the lung using a tube placed through the trachea in front of the bifurcation which marks the beginning of the lung (craniodorsal of bifurcation). A volume of 1.5 ml was delivered. Following the delivery of the pBD-1, all piglets were challenged with 5×10^9 cfu bacteria (n=10) by the same procedure. Control animals received saline instead of pBD-1 and were subsequently challenged. Piglets were kept with their sows within the same room in separated pens. Piglets were monitored twice a day.
In addition, the number of bacteria in BAL fluid and lung lesions was examined over a 10 day period. The BAL fluid was obtained by filling the lungs with 15 ml of SS-medium and withdrawing as much fluid as possible. To quantify the presence of B. pertussis in the BAL, fluid samples were centrifuged to remove debris and host cells; supernatant and dilutions thereof were plated onto BG plates and incubated at 37° C. for up to a week. To determine the number of bacteria within tissues, lesions were excised, weighed, homogenized and plated onto BG agar plates.

B. pertussis [5] = assay: Transmission electron microscopy of B. pertussis after pBD-1 treatment; type: cell-based; details: 20 and 40 μg/ml; 60 minutes at 37° C.
Procedure: (§4) To determine the potential mechanism of action of pBD-1, transmission electron microscopy (TEM) was employed to evaluate the effect of pBD-1 on the bacterial membrane of B. pertussis and B. bronchiseptica following treatment with pBD-1. pBD-1 was added at a final concentration of 20 μg/ml or 40 μg/ml to 5-9×10^9 CFU bacteria and incubated for 60 minutes at 37° C. Bacteria were washed with PBS, fixed with an equal volume of 5% glutaraldehyde in 0.1 M sodium cacodylate buffer (pH 7.4), and centrifuged at 5000 g for 5 minutes. Cells were resuspended in 1% agarose and pelleted. The bacterial pellets were stored in the fixative (2.5% glutaraldehyde) at 4° C. for 2 hours. The samples were dehydrated and en bloc stained with uranyl acetate in a series of ethanol concentrations and then embedded in Epon/Araldite. Thin sections were cut using an ultramicrotome with a diamond knife, mounted on specimens grids and stained with uranyl acetate and lead citrate before being examined on a transmission electron microscope (Philips 410LS) operating at 80 kV and at magnification ranging from 24000-55000×.

B. bronchiseptica [6] = assay: Transmission electron microscopy of B. bronchiseptica after pBD-1 treatment; type: cell-based; details: 80 μg/ml
Procedure: as §4, with “bronchiseptica following treatment with pBD-1. pBD-1 was added at a final concentration of 20 μg/ml or 40 μg/ml to 5-9×10^9 CFU bacteria” left out

Escherchia coli = details: 40 μg/ml; cited from earlier work
Salmonella typhimurium = details: 40 μg/ml; cited from earlier work
Listeria monocytogenes = details: 40 μg/ml; cited from earlier work
Candida albicans = details: 40 μg/ml; cited from earlier work
B. pertussis isolates = details: cited from earlier work

With “H-KNIGNSVSCLRNKGVCMPGKCAPKMKQIGTCGMPQVKCCKRK-NH2 (disulfide 9-38, 16-31, 21-39) [pBD-1]” the “bactericidal activity in diluted SS medium” value (B. pertussis [1]; 10 μg/ml, 1/10 diluted SS medium in PBS, shorter period of time (FIG. 5B)) was “even stronger bactericidal activity”, the “growth inhibition in comparison with control medium” value (B. pertussis [1]; 20 μg/ml, 6 hours, repeated assay (FIG. 5A)) was “at least 2 logs” and the “inhibition of B. pertussis growth” value (B. pertussis [1]; 40 μg/ml, 18 hours of incubation (FIG. 4)) was “complete inhibition”. For the same substance, the “neutralization of 5-8×10^6 CFU of B. pertussis” value (B. pertussis [1]; 80 μg/ml, 18 hours, repeated assay (FIG. 5A)) was “completely neutralized”, the “effect of serum on antimicrobial activity” value (B. pertussis [1]; 10-50% rabbit serum added to the medium) was “did not inhibit” and the “inhibitory effect against B. pertussis, dependence” value (B. pertussis [1]; 20, 40, 80 μg, 6, 18, 30 hr) was “dose and time dependent”. The “antimicrobial activity against B. pertussis on addition of salt” value (B. pertussis [1]; addition of salt) was “significantly reduced”, the “reduction in bacterial growth compared to untreated control wells” value (B. pertussis [1]; after 6 hours of incubation, 20-80 μg pBD-1) was “about 2 logs” and the “reduction of bacterial growth” value (B. pertussis [1]; after 18 hours, depending on the dose used) was “more than 100,000 fold”. The “reduction of the bacterial growth” value (B. pertussis [1]; after 30 hours) was 1,000,000 fold, the “growth of B. bronchiseptica” value (B. bronchiseptica [2]; 40 μg/ml, 6 and 24 hours (FIG. 7B)) was “unaffected” and the “susceptibility of B. bronchiseptica” value (B. bronchiseptica [2]; 160 μg/ml, up to 48 hours incubation) was “resistant”. The inhibitory activity (B. bronchiseptica [2]; FIG. 6C) was “Inhibitory activity was observed against all of these organisms except B. bronchiseptica”, the inhibitory activity [3] was “Inhibitory activity was observed” and the inhibitory activity (Streptococcus suis) was “Inhibitory activity was observed”. The inhibitory activity (E. coli) was “Inhibitory activity was observed”, the “protection of infected piglets” value (B. pertussis [4]; 500 μg into the lung at time of challenge, 5×10^9 CFU B. pertussis) was “complete protection” and the “clinical symptoms (fever, respiratory symptoms)” value (B. pertussis [4]; 500 μg into the lung, all treated animals, all controls had fever and respiratory symptoms) was “no clinical symptoms”. For the same substance, the “clinical symptoms and pathological alterations” value (B. pertussis [4]; 500 μg, at 2, 4, 7 and 10 days post infection) was “total absence”, the “lesions in the histopathology of lung tissues” value (B. pertussis [4]; 500 μg, compared with challenged control piglets) was “either minor or no lesions” and the “numbers of bacteria in homogenized lung tissues” value (B. pertussis [4]; 500 μg, days 2, 4, 7 and 10 post infection, p<0.005 (FIG. 10B)) was “significantly lower numbers of bacteria”. For the same substance, the “numbers of isolated bacteria in BALs” value (B. pertussis [4]; 500 μg, days 2, 4 and 7 post infection, p<0.0001 (FIG. 10A)) was “significantly reduced”, the “morphological effect on the bacterial cell surface” value (B. pertussis [5]) was “substantial morphological damage” and the “ultrastructural effect on bacteria” value (B. bronchiseptica [6]) was “did not result in major ultrastructural abnormalities or discrete holes”. The salt-dependent bactericidal activity (Escherchia coli) was “has been demonstrated”, the salt-dependent bactericidal activity (Salmonella typhimurium) was “has been demonstrated” and the salt-dependent bactericidal activity (Listeria monocytogenes) was “has been demonstrated”. For the same substance, the salt-dependent bactericidal activity (Candida albicans) was “has been demonstrated”.
For “human β-defensin-1: human β-defensin-1, cited from Baneman et al. as without effect on B. pertussis (DHYNCVSSGGQCLYSACPIFTKIQGTCYRGKAKCCK; ends and bridges not checked; cysteine pairing not given here; UniProt P60022 33-68, looked up)”, the “effect on B. pertussis isolates” value (B. pertussis isolates) is given as “no effect”.
